Results reported in ChEMBL document CHEMBL1201862, “PubChem BioAssay data set” (2004).
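1) Cells in 96-well plates. 2) Compound, 48 h, 5 concentrations. 3) Linear interpolation between surrounding doses. 4) Unreached endpoint = highest concentration. GI50 marks 50% less growth.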 Activity calls are given as the source filed them. Cut-off read from the data, not from the text of the source: active = GI50 up to about 1.1 µM and inactive = higher.

What was measured:
Test in all cases: DTP human tumour cell line panel, 48 h
786-0 = test system: 786-0
A498 = test system: A498
A549 = test system: A549
ACHN = test system: ACHN
CAKI-1 = test system: CAKI-1
CCRF-CEM = test system: CCRF-CEM
COLO 205 = test system: COLO 205
DLD-1 = test system: DLD-1
DMS-273 = test system: DMS-273
EKVX = test system: EKVX
HCT-116 = test system: HCT-116
HCT-15 = test system: HCT-15
HL-60 = test system: HL-60
HOP-62 = test system: HOP-62
HOP-92 = test system: HOP-92
HT-29 = test system: HT-29
IGROV-1 = test system: IGROV-1
K562 = test system: K562
KM-20L2 = test system: KM-20L2
LOX IMVI = test system: LOX IMVI
LXFL 529 = test system: LXFL 529
M14 = test system: M14
M19-MEL = test system: M19-MEL
MOLT-4 = test system: MOLT-4
Malme-3M = test system: Malme-3M
NCI-H226 = test system: NCI-H226
NCI-H23 = test system: NCI-H23
NCI-H460 = test system: NCI-H460
NCI-H522 = test system: NCI-H522
OVCAR-3 = test system: OVCAR-3
OVCAR-4 = test system: OVCAR-4
OVCAR-5 = test system: OVCAR-5
OVCAR-8 = test system: OVCAR-8
RXF 393 = test system: RXF 393
SF-268 = test system: SF-268
SF-295 = test system: SF-295
SF-539 = test system: SF-539
SK-MEL-28 = test system: SK-MEL-28
SK-MEL-2 = test system: SK-MEL-2
SK-MEL-5 = test system: SK-MEL-5
SK-OV-3 = test system: SK-OV-3
SN12C = test system: SN12C
SNB-19 = test system: SNB-19
SNB-75 = test system: SNB-75
SNB-78 = test system: SNB-78
SW-620 = test system: SW-620
TK-10 = test system: TK-10
U-251 = test system: U-251
UACC-257 = test system: UACC-257
UACC-62 = test system: UACC-62
UO-31 = test system: UO-31
XF498 = test system: XF498
HCC 2998 = test system: HCC 2998
RPMI-8226 = test system: RPMI-8226
BT-549 = test system: BT-549
DU-145 = test system: DU-145
Hs-578T = test system: Hs-578T
KM12 = test system: KM12
MCF7 = test system: MCF7
MDA-MB-231 = test system: MDA-MB-231
MDA-MB-435 = test system: MDA-MB-435
MDA-N = test system: MDA-N
NCI/ADR-RES = test system: NCI/ADR-RES
PC-3 = test system: PC-3
SR = test system: SR
T47D = test system: T47D

## COc1ccc(C2C(Cl)C(=O)N2NC(=O)c2ccc(NC(C)=O)cc2)cc1 (centres undefined)
786-0
  GI50: > 100 µM (inactive)
A498
  GI50: > 100 µM (inactive)
A549
  GI50: > 100 µM (inactive)
ACHN
  GI50: > 100 µM (inactive)
CAKI-1
  GI50: > 100 µM (inactive)
CCRF-CEM
  GI50: > 100 µM (inactive)
COLO 205
  GI50: > 100 µM (inactive)
DLD-1
  GI50: > 100 µM (inactive)
DMS-273
  GI50: > 100 µM (inactive)
EKVX
  GI50: > 100 µM (inactive)
HCT-116
  GI50: > 100 µM (inactive)
HCT-15
  GI50: > 100 µM
HL-60
  GI50: > 100 µM (inactive)
HOP-62
  GI50: > 100 µM (inactive)
HOP-92
  GI50: > 100 µM (inactive)
HT-29
  GI50: > 100 µM (inactive)
IGROV-1
  GI50: > 100 µM (inactive)
K562
  GI50: > 100 µM (inactive)
KM-20L2
  GI50: > 100 µM (inactive)
LOX IMVI
  GI50: > 100 µM (inactive)
LXFL 529
  GI50: > 100 µM (inactive)
M14
  GI50: > 100 µM (inactive)
M19-MEL
  GI50: > 100 µM (inactive)
MOLT-4
  GI50: > 100 µM (inactive)
Malme-3M
  GI50: > 100 µM (inactive)
NCI-H226
  GI50: > 100 µM (inactive)
NCI-H23
  GI50: > 100 µM (inactive)
NCI-H460
  GI50: > 100 µM (inactive)
NCI-H522
  GI50: > 100 µM (inactive)
OVCAR-3
  GI50: > 100 µM (inactive)
OVCAR-4
  GI50: > 100 µM (inactive)
OVCAR-5
  GI50: > 100 µM (inactive)
OVCAR-8
  GI50: > 100 µM (inactive)
RXF 393
  GI50: > 100 µM (inactive)
SF-268
  GI50: > 100 µM (inactive)
SF-295
  GI50: > 100 µM (inactive)
SF-539
  GI50: > 100 µM (inactive)
SK-MEL-28
  GI50: > 100 µM (inactive)
SK-MEL-2
  GI50: > 100 µM (inactive)
SK-MEL-5
  GI50: > 100 µM (inactive)
SK-OV-3
  GI50: > 100 µM (inactive)
SN12C
  GI50: > 100 µM (inactive)
SNB-19
  GI50: > 100 µM (inactive)
SNB-75
  GI50: > 100 µM (inactive)
SNB-78
  GI50: > 100 µM (inactive)
SW-620
  GI50: > 100 µM (inactive)
TK-10
  GI50: > 100 µM (inactive)
U-251
  GI50: > 100 µM (inactive)
UACC-257
  GI50: > 100 µM (inactive)
UACC-62
  GI50: > 100 µM (inactive)
UO-31
  GI50: > 100 µM (inactive)
XF498
  GI50: > 100 µM (inactive)

## Cc1cnc(-c2ccccc2)o1
786-0
  GI50: > 100 µM (inactive)
CCRF-CEM
  GI50: > 100 µM (inactive)
DLD-1
  GI50: > 100 µM (inactive)
DMS-273
  GI50: 52.6 µM (inactive)
HCC 2998
  GI50: > 100 µM (inactive)
HCT-116
  GI50: > 100 µM (inactive)
HL-60
  GI50: > 100 µM (inactive)
HOP-62
  GI50: > 100 µM (inactive)
K562
  GI50: > 100 µM (inactive)
KM-20L2
  GI50: > 100 µM (inactive)
LOX IMVI
  GI50: > 100 µM (inactive)
LXFL 529
  GI50: > 100 µM (inactive)
M14
  GI50: > 100 µM (inactive)
MOLT-4
  GI50: > 100 µM (inactive)
NCI-H226
  GI50: > 100 µM (inactive)
NCI-H23
  GI50: > 100 µM (inactive)
NCI-H460
  GI50: > 100 µM (inactive)
NCI-H522
  GI50: > 100 µM (inactive)
OVCAR-4
  GI50: > 100 µM (inactive)
RPMI-8226
  GI50: > 100 µM (inactive)
RXF 393
  GI50: > 100 µM (inactive)
SF-539
  GI50: > 100 µM (inactive)
SK-MEL-28
  GI50: > 100 µM (inactive)
SN12C
  GI50: > 10 µM (inactive)
SNB-19
  GI50: > 100 µM (inactive)
SNB-75
  GI50: > 100 µM (inactive)
SNB-78
  GI50: > 100 µM (inactive)
U-251
  GI50: > 100 µM (inactive)

## CC1=C(O)C(=O)C=C2C1=CC=C1[C@@]2(C)CC[C@@]2(C)[C@@H]3C[C@](C)(C(=O)O)CC[C@]3(C)CC[C@]12C [CELASTROL]
786-0
  GI50: 0.0147 µM (active)
A498
  GI50: 0.0335 µM (active)
A549
  GI50: 0.422 µM (active)
ACHN
  GI50: 0.0169 µM (active)
BT-549
  GI50: 0.0124 µM (active)
CAKI-1
  GI50: 0.0135 µM (active)
CCRF-CEM
  GI50: < 0.01 µM (active)
COLO 205
  GI50: 0.0166 µM (active)
DU-145
  GI50: 0.0675 µM (active)
EKVX
  GI50: 0.0471 µM (active)
HCC 2998
  GI50: 0.0306 µM (active)
HCT-116
  GI50: 0.0221 µM (active)
HCT-15
  GI50: 0.0113 µM
HL-60
  GI50: 0.0173 µM (active)
HOP-62
  GI50: 0.237 µM (active)
HOP-92
  GI50: 0.0101 µM (active)
HT-29
  GI50: 0.033 µM (active)
Hs-578T
  GI50: 0.0427 µM (active)
IGROV-1
  GI50: 0.0178 µM (active)
K562
  GI50: 0.0201 µM (active)
KM12
  GI50: 0.169 µM (active)
LOX IMVI
  GI50: 0.0182 µM (active)
M14
  GI50: 0.0449 µM (active)
MCF7
  GI50: 0.0818 µM (active)
MDA-MB-231
  GI50: 0.021 µM (active)
MDA-MB-435
  GI50: 0.0351 µM (active)
MDA-N
  GI50: 0.0234 µM (active)
MOLT-4
  GI50: 0.0124 µM (active)
Malme-3M
  GI50: 0.0352 µM (active)
NCI-H226
  GI50: 0.16 µM (active)
NCI-H23
  GI50: 0.0526 µM (active)
NCI-H460
  GI50: 0.149 µM (active)
NCI-H522
  GI50: 0.0143 µM (active)
NCI/ADR-RES
  GI50: 0.0255 µM (active)
OVCAR-3
  GI50: 0.0264 µM (active)
OVCAR-4
  GI50: 0.0188 µM (active)
OVCAR-5
  GI50: 0.18 µM (active)
OVCAR-8
  GI50: 0.0226 µM (active)
PC-3
  GI50: 0.0393 µM (active)
RPMI-8226
  GI50: < 0.0136 µM (active)
RXF 393
  GI50: 0.0111 µM (active)
SF-268
  GI50: 0.0446 µM (active)
SF-295
  GI50: 0.194 µM (active)
SF-539
  GI50: 0.0811 µM (active)
SK-MEL-28
  GI50: 0.0164 µM (active)
SK-MEL-2
  GI50: 0.119 µM (active)
SK-MEL-5
  GI50: 0.07 µM (active)
SK-OV-3
  GI50: 0.238 µM (active)
SN12C
  GI50: 0.0376 µM (active)
SNB-19
  GI50: 0.0757 µM (active)
SNB-75
  GI50: 0.132 µM (active)
SR
  GI50: < 0.01 µM (active)
SW-620
  GI50: 0.0199 µM (active)
T47D
  GI50: 0.0198 µM (active)
TK-10
  GI50: < 0.0105 µM (active)
U-251
  GI50: 0.0298 µM (active)
UACC-257
  GI50: 0.0256 µM (active)
UACC-62
  GI50: 0.0237 µM (active)
UO-31
  GI50: 0.0308 µM (active)
